Test results as given in patent publication US20230348426A1, “OXOPYRROLIDINE FPR2 AGONISTS” (Bristol-Myers Squibb Company, priority 2020, published 2023).

Tests used:
human FPR2 = human FPR2 (Homo sapiens (Human), UniProt P25090); assay: FPR2 cyclic adenosine monophosphate (cAMP) assay; assay type: cell-based; conditions: CHO cells overexpressing human FPR2; forskolin 5 µM; inhibition of cAMP production; read-out: hFPR2 cAMP2 EC50
How it was run: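 CHO cells overexpressing human FPR2 (2,000/well) incubated 30 min at room temperature with compound (0.020 nM–100 µM, 1% DMSO), 5 µM forskolin and 200 µM IBMX.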

human FPR1 = human FPR1 (Homo sapiens (Human), UniProt P21462); assay: FPR1 cyclic adenosine monophosphate (cAMP) assay; assay type: cell-based; conditions: CHO cells overexpressing human FPR1; forskolin 10 µM; inhibition of cAMP production; read-out: hFPR1 cAMP EC50
How it was run: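 CHO cells overexpressing human FPR1 (4,000 cells/well) stimulated with 10 µM forskolin plus 200 µM IBMX in the presence of compound (0.020 nM–100 µM, 1% DMSO), 30 min at room temperature. Intracellular cAMP measured by HTRF. Inhibition of cAMP production fitted to a 4-parameter logistic equation.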

Sequence of human FPR2 (P25090 whole entry): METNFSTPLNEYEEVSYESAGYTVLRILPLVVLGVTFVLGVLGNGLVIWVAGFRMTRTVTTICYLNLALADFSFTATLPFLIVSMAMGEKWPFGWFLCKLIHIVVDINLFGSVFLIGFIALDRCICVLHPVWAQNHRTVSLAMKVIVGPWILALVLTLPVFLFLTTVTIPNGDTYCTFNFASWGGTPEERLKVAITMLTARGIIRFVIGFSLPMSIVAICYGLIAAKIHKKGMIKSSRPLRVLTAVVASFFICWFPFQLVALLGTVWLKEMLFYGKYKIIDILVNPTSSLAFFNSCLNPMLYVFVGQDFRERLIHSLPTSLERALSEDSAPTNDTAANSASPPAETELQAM
Sequence of human FPR1 (P21462 whole entry): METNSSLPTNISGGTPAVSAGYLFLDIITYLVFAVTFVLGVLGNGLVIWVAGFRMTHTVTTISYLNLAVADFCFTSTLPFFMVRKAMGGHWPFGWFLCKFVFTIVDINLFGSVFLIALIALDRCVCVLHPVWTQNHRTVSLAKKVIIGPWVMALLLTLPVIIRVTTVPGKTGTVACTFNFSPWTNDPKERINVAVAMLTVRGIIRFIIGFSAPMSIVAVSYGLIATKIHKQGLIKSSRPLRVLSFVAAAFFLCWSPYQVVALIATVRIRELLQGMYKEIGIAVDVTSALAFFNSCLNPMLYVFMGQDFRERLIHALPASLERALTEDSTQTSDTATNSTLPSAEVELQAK

| EC50 (human FPR2) | EC50 (human FPR1) | Compound |
| --- | --- | --- |
| 3.5 nM | 4 nM | COc1cc(F)c([C@@H]2CN(c3c(C)ccn(CC4CCOC4)c3=O)C(=O)[C@H]2NC(=O)c2ccc(OC(F)F)cc2)c(F)c1 (some centres unmarked) [Example 695] |
| 7.2 nM | 8.3 nM | COc1ccc([C@@H]2CN(c3ccnn(CC(F)F)c3=O)C(=O)[C@H]2NC(=O)c2ccc(OC(F)(F)F)cc2)c(F)c1 [Example 696] |
| 3.6 nM | 6.7 nM | COc1cc(F)c([C@@H]2CN(c3c(C)ccn(CC4CCOC4)c3=O)C(=O)[C@H]2NC(=O)c2ccc(OC(F)(F)F)cc2)c(F)c1 (some centres unmarked) [Example 697] |
| 5.7 nM | 2.5 nM | COc1ccc([C@@H]2CN(c3c(C)ccn(CC4CCOCC4)c3=O)C(=O)[C@H]2NC(=O)c2ccc(OC(F)F)cc2)c(F)c1 [Example 698] |
| 6.6 nM | 3 nM | COc1ccc([C@@H]2CN(c3c(C)ccn(CC4CCOCC4)c3=O)C(=O)[C@H]2NC(=O)c2ccc(OC(F)F)cc2)cc1 [Example 699] |
| 3 nM | 0.67 nM | COc1ccc([C@@H]2CN(c3c(C)ccn(CC4CCOCC4)c3=O)C(=O)[C@H]2NC(=O)c2ccc(OC(F)(F)F)cc2)cc1 [Example 700] |
| 12 nM | 27 nM | COc1cc(F)c([C@@H]2CN(c3c(C)ccn(C4CCS(=O)(=O)C4)c3=O)C(=O)[C@H]2NC(=O)c2ccc(OC(F)F)cc2)c(F)c1 (some centres unmarked) [Example 701] |
| 8.5 nM | 7.5 nM | COc1cc(F)c([C@@H]2CN(c3c(C)ccn(C4CCS(=O)(=O)C4)c3=O)C(=O)[C@H]2NC(=O)c2ccc(OC(F)(F)F)cc2)c(F)c1 (some centres unmarked) [Example 702] |
| 57 nM | 99 nM | COc1cc(F)c([C@@H]2CN(c3ccc(C(=O)O)n(CCO)c3=O)C(=O)[C@H]2NC(=O)c2ccc(OC(F)(F)F)cc2)c(F)c1 [Example 703] |
| 2.4 nM | 1 nM | COc1ccc([C@@H]2CN(c3c(C)ccn(C4CCOC4)c3=O)C(=O)[C@H]2NC(=O)c2ccc(OC(F)(F)F)cc2)cc1 (some centres unmarked) [Example 704] |
| 0.6 nM | 3.9 nM | COCC(CO)n1cccc(N2C[C@@H](c3ccc(OC)cc3F)[C@H](NC(=O)c3ccc(OC(F)(F)F)cc3)C2=O)c1=O (some centres unmarked) [Example 705] |
| 9.4 nM | 19 nM | COc1cc(F)c([C@@H]2CN(c3c(C)ccn(C(CO)C(F)(F)F)c3=O)C(=O)[C@H]2NC(=O)c2ccc(OC(F)F)cc2)c(F)c1 (some centres unmarked) [Example 706] |
| 5.4 nM | 130 nM | COc1cc(F)c([C@@H]2CN(c3c(C)ccn(C(CO)C(F)(F)F)c3=O)C(=O)[C@H]2NC(=O)c2ccc(OC(F)F)cc2)c(F)c1 (some centres unmarked) [Example 707] |
| 11 nM | > 1000 nM | COc1cc(F)c([C@@H]2CN(c3nccc(OC4CCOC4)c3C(F)(F)F)C(=O)[C@H]2NC(=O)c2ccc(Cl)cc2)c(F)c1 (some centres unmarked) [Example 708] |
| 14 nM | 210 nM | COc1cc(F)c([C@@H]2CN(c3nccc(OC4CCOC4)c3C(F)(F)F)C(=O)[C@H]2NC(=O)c2ccc(Cl)cc2)c(F)c1 (some centres unmarked) [Example 709] |
| 4 nM | 490 nM | COc1cc(F)c([C@@H]2CN(c3cncn(C4CCNC4)c3=O)C(=O)[C@H]2NC(=O)c2ccc(Cl)cc2)c(F)c1 (some centres unmarked) [Example 710] |
| 4.2 nM | 3400 nM | COc1cc(C2CCN(CCF)CC2)nc(N2C(=O)[C@@H](NC(=O)c3ccc(OC(F)F)cc3)[C@H](c3c(F)cc(OC)cc3F)[C@@H]2C)c1 [Example 711] |
| 4 nM | > 5000 nM | COc1cc(F)c([C@@H]2CN(c3cncn(C4CCN(C)C4)c3=O)C(=O)[C@H]2NC(=O)c2ccc(Cl)cc2)c(F)c1 (some centres unmarked) [Example 713] |
| 6.4 nM | 3600 nM | COc1cc(F)c([C@@H]2CN(c3cncn(C4CCNC4)c3=O)C(=O)[C@H]2NC(=O)c2ccc(Cl)cc2)c(F)c1 (some centres unmarked) [Example 714] |
| 5.5 nM | > 5000 nM | COc1cc(F)c([C@@H]2CN(c3cc(C)cc(C4CCN(CCO)CC4)n3)C(=O)[C@H]2NC(=O)c2ccc(OC(F)F)cc2)c(F)c1 [Example 715] |
| 5.7 nM | > 5000 nM | COc1cc(F)c([C@@H]2CN(c3cc(C)cc(C4CCNCC4)n3)C(=O)[C@H]2NC(=O)c2ccc(OC(F)F)cc2)c(F)c1 [Example 716] |
| 0.9 nM | 840 nM | COc1cc(F)c([C@@H]2CN(c3cccc(C4CCCNC4)n3)C(=O)[C@H]2NC(=O)c2ccc(OC(F)F)cc2)c(F)c1 (some centres unmarked) [Example 718] |
| 1.4 nM | 1900 nM | COc1cc(F)c([C@@H]2CN(c3cccc(C4CCCNC4)n3)C(=O)[C@H]2NC(=O)c2ccc(OC(F)F)cc2)c(F)c1 (some centres unmarked) [Example 719] |
| 3.9 nM | > 5000 nM | COc1cc(C2CCN(CC(C)(C)O)CC2)nc(N2C[C@@H](c3c(F)cc(OC)cc3F)[C@H](NC(=O)c3ccc(OC(F)F)cc3)C2=O)c1 [Example 720] |
| 5.6 nM | > 5000 nM | COc1cc(F)c([C@@H]2CN(c3cncn(C4CCN(C)C4)c3=O)C(=O)[C@H]2NC(=O)c2ccc(Cl)cc2)c(F)c1 (some centres unmarked) [Example 721] |
